This passage reports IC50 results from US20180057505A1, “BICYCLIC HETEROARYL COMPOUNDS USEFUL AS INHIBITORS OF THE PAR-2 SIGNALING PATHWAY” (VERTEX PHARMACEUTICALS INCORPORATED, priority 2015, published 2018).

Common to all, as to type: cell-based
The subject of test [1] is Thrombin-stimulated Ca2+ response in HT-29 cells. Briefly: Ca FLIPR TETRA assay, ANTAGONIST mode, activator 1 U/mL Thrombin. As to conditions: Homo sapiens; HT-29 cells, activator 1 U/mL Thrombin. Summed up:
(§1)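 Antagonist mode, HT-29: cells O/N 37 °C, 1% FBS; calcium 5 dye 45 min 37 °C + 15 min RT; cpd (DMSO, HBSS-diluted) 30 min RT; activator at final conc. (8 μM SLIGKV / 1 U/mL thrombin / 3.1 U/mL trypsin / 0.6 μM UTP); FLIPR Tetra Ca2+ read.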

Test [2] has as its target T1, PAR2 (HT-29 cells) (Homo sapiens, UniProt P55085).
T1 construct: host or cells: HT-29
T1 sequence (P55085 26-397): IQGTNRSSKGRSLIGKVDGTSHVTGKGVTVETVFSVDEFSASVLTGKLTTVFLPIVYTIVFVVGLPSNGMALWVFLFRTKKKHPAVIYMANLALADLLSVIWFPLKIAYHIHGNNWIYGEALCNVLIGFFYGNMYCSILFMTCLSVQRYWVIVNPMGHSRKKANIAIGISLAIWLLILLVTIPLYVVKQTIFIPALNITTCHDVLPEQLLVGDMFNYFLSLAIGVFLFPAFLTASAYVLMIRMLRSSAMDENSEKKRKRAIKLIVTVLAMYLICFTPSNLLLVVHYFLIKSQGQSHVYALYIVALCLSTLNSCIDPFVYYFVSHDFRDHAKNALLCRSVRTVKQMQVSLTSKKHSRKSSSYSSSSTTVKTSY
Briefly: Ca FLIPR TETRA assay, ANTAGONIST mode, activator 3.1 U/mL trypsin. Conditions: HT-29 cells, activator 3.1 U/mL trypsin; maximal antagonist concentration per Method (A: 0.1, 1 or 2 μM; B: 50 μM). In a few lines: as §1

Test [3] deals with T1, PAR2 (HT-29 cells). As to the kind of experiment: Ca FLIPR TETRA assay, ANTAGONIST mode, activator 8 μM SLIGKV. As to conditions: HT-29 cells, activator 8 μM SLIGKV; maximal antagonist concentration per Method (A: 0.1, 1 or 2 μM; B: 50 μM). Summed up:
as §1

Test [4] relates to UTP-stimulated Ca2+ response in HT-29 cells. Briefly: Ca FLIPR TETRA assay, ANTAGONIST mode, activator 0.6 μM UTP. Conditions: Homo sapiens; HT-29 cells, activator 0.6 μM UTP. In a few lines: as §1

What is called IC50 is the concentration needed to halve the response being measured. Consider `Cc1cc(C(=O)N2CCN(C(=O)c3cc4nc(-c5ccc(F)cc5)cc(C(C)C)c4o3)C(C)(C)C2)on1` [Example I-138], for which the IC50 in test [1] is more than 1000 nM; in test [2], 2.2 nM; in test [3], 2 nM; in test [4], more than 1000 nM.
Take `CC(C)c1cc(-c2ccc(F)cc2)nc2cc(C(=O)N3CCN(C(=O)c4ccnn4C)CC3(C)C)oc12` [Example I-139]: the 50% inhibitory concentration (IC50) in test [1] was more than 1000 nM; in test [2], 33 nM; in test [3] it was 24 nM; in test [4] it was more than 1000 nM.
For the compound `Cc1cnoc1C(=O)N1CCN(C(=O)c2cc3nc(-c4ccc(F)cc4)cc(C(C)C)c3o2)C(C)(C)C1` [Example I-140], the IC50 in test [1] was more than 1000 nM; in test [2] it was 3.5 nM; in test [3], 4.8 nM; in test [4] it was more than 1000 nM.
Turning to `CC(C)c1cc(-c2ccc(F)cc2)nc2cc(C(=O)N3CCN(C(=O)c4ccn(C)n4)CC3(C)C)oc12` [Example I-141], the half-maximal inhibitory concentration (IC50) in test [1] was more than 1000 nM; in test [2] it was 4.2 nM; in test [3], 3.2 nM; in test [4] it was more than 1000 nM.
As for `CC(C)c1cc(-c2ccc(F)cc2)nc2cc(C(=O)N3CCN(C(=O)c4nnc[nH]4)CC3(C)C)oc12` [Example I-142], the 50% inhibitory concentration (IC50) in test [1] was more than 1000 nM; in test [2], 13 nM; in test [3] it was 7.2 nM; in test [4], more than 1000 nM.
In the case of `C=C(C)c1cc(-c2ccc(F)cc2)nc2cc(C(=O)N3CCN(C(=O)[C@H]4C[C@](O)(C(F)(F)F)C4)CC3(C)C)oc12` [Example I-143], the concentration for half-maximal inhibition (IC50) is more than 1000 nM in test [1], 2.2 nM in test [2], 2.1 nM in test [3] and more than 1000 nM in test [4].
For `CC(C)c1cc(-c2ccc(F)cc2)nc2cc(C(=O)N3CCN(S(=O)(=O)c4cn(C)cn4)CC3(C)C)oc12` [Example I-144], the IC50 in test [1] is more than 1000 nM; in test [2], 31 nM; in test [3], 24 nM; in test [4] it was more than 1000 nM.
Regarding `Cc1ncc(S(=O)(=O)N2CCN(C(=O)c3cc4nc(-c5ccc(F)cc5)cc(C(C)C)c4o3)C(C)(C)C2)n1C` [Example I-145], the half-inhibitory concentration (IC50) in test [1] was more than 1000 nM; in test [2], 42 nM; in test [3], 40 nM; in test [4], more than 1000 nM.
Regarding `Cc1nn(C)cc1S(=O)(=O)N1CCN(C(=O)c2cc3nc(-c4ccc(F)cc4)cc(C(C)C)c3o2)C(C)(C)C1` [Example I-146], the concentration for half-maximal inhibition (IC50) in test [1] is more than 1000 nM; in test [2] it was 21 nM; in test [3] it was 13 nM; in test [4], more than 1000 nM.
As to `CC(C)c1cc(-c2ccc(F)cc2)nc2cc(C(=O)N3CCN(S(=O)(=O)c4cn[nH]c4)CC3(C)C)oc12` [Example I-147], the concentration for half-maximal inhibition (IC50) in test [1] is more than 1000 nM; in test [2] it was 34 nM; in test [3], 20 nM; in test [4] it was more than 1000 nM.
For `CC(C)c1cc(-c2ccc(F)cc2)nc2cc(C(=O)N3CCN(S(=O)(=O)c4ccn(C)n4)CC3(C)C)oc12` [Example I-148], the 50% inhibitory concentration (IC50) in test [1] was more than 1000 nM; in test [2] it was 36 nM; in test [3], 46 nM; in test [4], more than 1000 nM.
Take `CC(C)(C)c1cc(-c2ccc(F)cc2)nc2cc(C(=O)N3CCNC(=O)C3(C)C)oc12` [Example I-149]: the concentration for half-maximal inhibition (IC50) in test [1] is more than 1000 nM; in test [2], 9.6 nM; in test [3] it was 7.6 nM; in test [4], more than 1000 nM.
For `CCc1cc(-c2ccc(F)cc2)nc2cc(C(=O)N3CCN(C(=O)[C@H]4C[C@](O)(C(F)(F)F)C4)CC3(C)C)oc12` [Example I-150], the IC50 in test [1] was more than 1000 nM; in test [2] it was 1.6 nM; in test [3], 1.1 nM; in test [4], more than 1000 nM.
As to `CC(C)(C)c1cc(-c2ccc(F)cc2)nc2cc(C(=O)N3CCN(C(=O)[C@H]4C[C@@](C)(O)C4)CC3(C)C)oc12` [Example I-151], the IC50 in test [1] was more than 1000 nM; in test [2], 2.7 nM; in test [3], 1.5 nM; in test [4] it was more than 1000 nM.
Consider `CC(C)(C)c1cc(-c2ccc(F)cc2)nc2cc(C(=O)N3CCN(C(=O)c4ccn[nH]4)CC3(C)C)oc12` [Example I-152], for which the IC50 in test [1] is more than 1000 nM; in test [2], 7.7 nM; in test [3], 8.1 nM; in test [4] it was more than 1000 nM.
Regarding `CC(C)(C)c1cc(-c2ccc(Cl)cc2)nc2cc(C(=O)N3CCNC(=O)C3(C)C)oc12` [Example I-153, 4-[7-tert-butyl-5-(4-chlorophenyl)furo[3,2-b]pyridine-2-carbonyl]-3,3-dimethyl-piperazin-2-one], the IC50 was more than 1000 nM in test [1], 3 nM in test [2], 4.9 nM in test [3] and more than 1000 nM in test [4].
Take `CC(C)(C)c1cc(-c2ccc(F)cc2)nc2cc(C(=O)N3CCN(C(=O)c4nnc[nH]4)CC3(C)C)oc12` [Example I-154]: the IC50 in test [1] was more than 1000 nM; in test [2] it was 3.6 nM; in test [3], 4.7 nM; in test [4] it was more than 1000 nM.
With `CC(C)c1cc(-c2ccc(C(F)(F)F)cc2)nc2cc(C(=O)N3CCNC(=O)C3(C)C)oc12` [Example I-155], the IC50 in test [1] is more than 1000 nM; in test [2], 28 nM; in test [3], 14 nM; in test [4], more than 1000 nM.
On to `CC(C)(C)c1cc(-c2ccc(C(F)(F)F)cc2)nc2cc(C(=O)N3CCNC(=O)C3(C)C)oc12` [Example I-156], for which the IC50 in test [1] is more than 1000 nM; in test [2], 26 nM; in test [3], 18 nM; in test [4] it was more than 1000 nM.
As to `CC(C)(C)c1cc(-c2ccc(C(F)(F)F)cc2)nc2cc(C(=O)N3CCN(C(=O)[C@H]4C[C@@](C)(O)C4)CC3(C)C)oc12` [Example I-158], the IC50 is more than 1000 nM in test [1], 3.9 nM in test [2], 3.1 nM in test [3] and more than 1000 nM in test [4].
Take `CC(C)(C)c1cc(-c2ccc(Cl)cc2)nc2cc(C(=O)N3CCN(C(=O)[C@H]4C[C@@](C)(O)C4)CC3(C)C)oc12` [Example I-159]: the IC50 in test [1] is more than 1000 nM; in test [2], 1.1 nM; in test [3], 0.6 nM; in test [4], more than 1000 nM.
Consider `Cc1nnc(C(=O)N2CCN(C(=O)c3cc4nc(-c5ccc(F)cc5)cc(C(C)(C)C)c4o3)C(C)(C)C2)[nH]1` [Example I-160], for which the half-maximal inhibitory concentration (IC50) in test [1] was more than 1000 nM; in test [2] it was 3.1 nM; in test [3], 1.6 nM; in test [4], more than 1000 nM.
For the compound `Cc1cc(-c2cc(C(C)(C)C)c3oc(C(=O)N4CCNC(=O)C4(C)C)cc3n2)ccc1F` [Example I-161], the IC50 in test [1] was more than 1000 nM; in test [2] it was 25 nM; in test [3], 16 nM; in test [4] it was more than 1000 nM.
As to `Cc1cc(-c2cc(C(C)(C)C)c3oc(C(=O)N4CCN(C(=O)c5nnc[nH]5)CC4(C)C)cc3n2)ccc1F` [Example I-162], the IC50 in test [1] is more than 1000 nM; in test [2], 15 nM; in test [3], 10 nM; in test [4], more than 1000 nM.
For the compound `Cc1cc(-c2cc(C(C)(C)C)c3oc(C(=O)N4CCN(C(=O)[C@H]5C[C@@](C)(O)C5)CC4(C)C)cc3n2)ccc1F` [Example I-163], the IC50 in test [1] was more than 1000 nM; in test [2], 3.6 nM; in test [3] it was 2.9 nM; in test [4], more than 1000 nM.
For `Cc1ccc(-c2cc(C(C)(C)C)c3oc(C(=O)N4CCN(C(=O)[C@H]5C[C@@](C)(O)C5)CC4(C)C)cc3n2)cc1` [Example I-164], the IC50 in test [1] is more than 1000 nM; in test [2] it was 4 nM; in test [3], 2.9 nM; in test [4], more than 1000 nM.
Regarding `Cc1ccc(-c2cc(C(C)(C)C)c3oc(C(=O)N4CCNC(=O)C4(C)C)cc3n2)cc1` [Example I-165], the IC50 was more than 1000 nM in test [1], 19 nM in test [2], 16 nM in test [3] and more than 1000 nM in test [4].
On to `Cc1nnc(C(=O)N2CCN(C(=O)c3cc4nc(-c5ccc(F)c(C)c5)cc(C(C)(C)C)c4o3)C(C)(C)C2)[nH]1` [Example I-166], for which the IC50 in test [1] was more than 1000 nM; in test [2] it was 3.3 nM; in test [3], 1.3 nM; in test [4], more than 1000 nM.
Turning to `Cc1cc(-c2cc(C(C)(C)C)c3oc(C(=O)N4CCN(C(=O)c5ccn[nH]5)CC4(C)C)cc3n2)ccc1F` [Example I-167], the IC50 was more than 1000 nM in test [1], 19 nM in test [2], 8.4 nM in test [3] and more than 1000 nM in test [4].
Take `CC(C)(C)c1cc(-c2ccc(Cl)cc2)nc2cc(C(=O)N3CCN(C(=O)c4ccn[nH]4)CC3(C)C)oc12` [Example I-168]: the 50% inhibitory concentration (IC50) was more than 1000 nM in test [1], 3 nM in test [2], 2.8 nM in test [3] and more than 1000 nM in test [4].
